{"source": "patent US11660349B2", "about": "“Non-linear multiblock copolymer-drug conjugates for the delivery of active agents” (priority 2012, dated 2023)", "key": {"Adult C57BL/6 mice [1]": {"system": "Adult C57BL/6 mice", "test": "Outer nuclear layer (ONL) thickness", "assay_type": "in vivo, mouse (C57BL/6)", "details": "0.25 μg intraocular; one week after injection", "description": "ONL thickness was measured. […] Mice were euthanized, a mark was placed at 12:00 at the corneal limbus, and eyes were removed and embedded in optimal cutting temperature compound. Ten micrometer frozen sections were cut parallel to the 12:00 or 9:00 meridian through the optic nerve and fixed in 4% paraformaldehyde. The sections were stained with hematoxylin and eosin, examined with an Axioskop microscope (Zeiss, Thornwood, N.Y.), and images were digitized using a three charge-coupled device (CCD) color video camera (IK-TU40A; Toshiba, Tokyo, Japan) and a frame grabber. Image-Pro Plus software (Media Cybernetics, Silver Spring, Md.) was used to outline the ONL."}, "[2]": {"system": "HIF-1 transcriptional activity and ocular NV", "details": "intraocular injections of 0.01-0.25 μg; cited from earlier work"}, "Adult C57BL/6 mice [3]": {"system": "Adult C57BL/6 mice", "test": "Electroretinograms (ERGs), retinal function after intraocular injection", "quoted_text": "For scotopic recordings, mice were dark adapted overnight, and for photopic recordings, mice were adapted for 10 min to background white light at an intensity of 30 cd/m^2. The mice were anesthetized with an intraperitoneal injection of ketamine hydrochloride (100 mg/kg body weight) and xylazine (5 mg/kg body weight). Pupils were dilated with Midrin P containing of 0.5% tropicamide and 0.5% phenylephrine, hydrochloride (Santen Pharmaceutical Co., Osaka, Japan). The mice were placed on a pad heated to 39° C. and platinum loop electrodes were placed on each cornea after application of Gonioscopic prism solution (Alcon Labs, Fort Worth, Tex.). A reference electrode was placed subcutaneously in the anterior scalp between the eyes and a ground electrode was inserted into the tail. The head of the mouse was held in a standardized position in a ganzfeld bowl illuminator that ensured equal illumination of the eyes. Recordings for both eyes were made simultaneously with electrical impedance balanced. Scotopic ERGs were recorded at 11 intensity levels of white light ranging from −3.00 to 1.40 log cd-s/m2. Six measurements were averaged for each flash intensity. Photopic ERGs were recorded at three intensity levels of white light ranging from 0.60 to 1.40 log cd-s/m2 with a 30 cd/m2 background. Five measurements were averaged for each flash intensity."}, "[4]": {"system": "mice with laser-induced choroidal NV", "test": "Laser-induced choroidal NV (CNV) mouse model", "assay_type": "in vivo, mouse (C57BL/6)", "details": "14 days, vs vehicle-injected fellow eyes", "description": "Pathogen-free C57BL/6 mice (Charles River, Wilmington, Mass.) were treated in accordance with the Association for Research in Vision and Ophthalmology Statement for the Use of Animals in Ophthalmic and Vision Research and the guidelines of the Johns Hopkins University Animal Care and Use Committee.\nChoroidal NV was induced by laser photocoagulation-induced rupture of Bruch's membrane as previously described (Tobe, T. et al., Am. J. Pathol. 135(5): 1641-1646(1998)). […] Laser photocoagulation (75 μm spot size, 0.1 sec duration, 120 mW) was performed in the 9, 12, and 3 o'clock positions of the posterior pole of each eye with the slit lamp delivery system of an OcuLight GL diode laser (Iridex, Mountain View, Calif.) and a handheld cover slip as a contact lens to view the retina. Production of a bubble at the time of laser, which indicates rupture of Bruch's membrane, is an important factor in obtaining CNV; therefore, only burns in which a bubble was produced were included in the study.\nImmediately after laser-induced rupture of Bruch's membrane, mice were randomized to various treatment groups for intraocular injections. Intravitreal injections were done under a dissecting microscope with a Harvard Pump Microinjection System and pulled glass micropipettes.\nAt 1, 4, 7, and 14 days after injection, fundus photographs were taken with a Micron III® camera (Phoenix Research Laboratories Inc., Pleasanton, Calif.). After 14 days, the mice were perfused with 1 ml of PBS containing 25 mg/ml of fluorescein-labeled dextran (2×10^6 Daltons average molecular weight; Sigma-Aldrich, St. Louis, Mo.) and choroidal flat mounts were examined by fluorescence microscopy. Images were captured with a Nikon Digital Still Camera DXM1200 (Nikon Instruments Inc., New York, N.Y.). Image analysis software (Image-Pro® Plus; Media Cybernetics, Silver Spring, Md.) was used to measure the total area of CNV at each rupture site with the investigator masked with respect to treatment group."}, "[5]": {"system": "C57BL/6 mice with oxygen-induced ischemic retinopathy", "test": "Oxygen-induced ischemic retinopathy, area of retinal NV", "assay_type": "in vivo, mouse (C57BL/6)", "details": "five days after administration (P17), vs vehicle", "description": "At P17, the area of retinal NV on the surface of the retina was measured. […] Retinas were dissected, washed, and incubated with goat-anti rat polyclonal antibody conjugated with Alexa 488 (Invitrogen, Carlsbad, Calif.) at 1:500 dilution at room temperature for 45 minutes and flat mounted. An observer masked with respect to treatment group measured the area of NV per retina by image analysis."}, "[6]": {"details": "0.1 μg intraocular after rupture of Bruch's membrane"}, "[7]": {"details": "1.0 μg intraocular after rupture of Bruch's membrane"}, "[8]": {"details": "10 μg intraocular after rupture of Bruch's membrane"}, "[9]": {"details": "1 μg intraocular, fourteen days after injection"}}, "note": "“Also recorded” adds a separate entry of the source."}
{"smiles": "C[C@H]1O[C@@H](O[C@H]2[C@@H](O)C[C@H](O[C@H]3[C@@H](O)C[C@H](O[C@H]4CC[C@@]5(C)[C@H](CC[C@@H]6[C@@H]5C[C@@H](O)[C@]5(C)[C@@H](C7=CC(=O)OC7)CC[C@]65O)C4)O[C@@H]3C)O[C@@H]2C)C[C@H](O)[C@@H]1O", "note": "[digoxin]", "values": [{"measurement": "outer nuclear layer thickness", "setting": "Adult C57BL/6 mice [1]", "result": "reduction in outer nuclear layer thickness at 3 of 6 measurement locations"}, {"measurement": "HIF-1 transcriptional activity and ocular NV", "setting": "[2]", "result": "suppress HIF-1 transcriptional activity and ocular NV"}, {"measurement": "mean scotopic and photopic b-wave amplitudes", "setting": "Adult C57BL/6 mice [3]; 0.05 μg intraocular", "result": "significant reduction in mean scotopic and photopic b-wave amplitudes"}, {"measurement": "ERG amplitudes (scotopic a-wave, scotopic b-wave, photopic b-wave)", "setting": "Adult C57BL/6 mice [3]; 0.25 μg intraocular, one week after injection", "result": "significant reduction in mean scotopic a-wave amplitude, mean scotopic b-wave amplitude, and mean photopic b-wave amplitude"}]}
{"smiles": "COc1cccc2c1C(=O)c1c(O)c3c(c(O)c1C2=O)C[C@@](O)(C(C)=O)C[C@@H]3O[C@H]1C[C@H](N)[C@H](O)[C@H](C)O1", "note": "[DNR, daunorubicin]", "values": [{"measurement": "area of CNV", "setting": "[4]; [6]", "result": "had no significant effect; also recorded: did not show a statistically significant reduction in the area of CNV"}, {"measurement": "area of CNV", "setting": "[4]; [7]", "result": "had no significant effect; also recorded: did not show a statistically significant reduction in the area of CNV"}, {"measurement": "area of CNV", "setting": "[4]; [8]", "result": "suppressed choroidal NV; also recorded: statistically significant reduction in the area of CNV"}, {"measurement": "area of RNV", "setting": "[5]; 0.01 μg intraocular at P12", "result": "had no significant effect; also recorded: did not show a statistically significant reduction in the area of RNV"}, {"measurement": "area of RNV", "setting": "[5]; 0.1 μg intraocular at P12", "result": "caused a small reduction; also recorded: statistically significant reduction in the area of RNV"}, {"measurement": "area of RNV", "setting": "[5]; 1.0 μg intraocular at P12", "result": "markedly reduced the area of retinal NV; also recorded: statistically significant reduction in the area of RNV"}, {"measurement": "mean scotopic and photopic b-wave amplitudes", "setting": "Adult C57BL/6 mice [3]; [9]", "result": "significant reduction in mean scotopic and photopic b-wave amplitudes"}]}
{"smiles": "COc1cccc2c1C(=O)c1c(O)c3c(c(O)c1C2=O)C[C@@](O)(C(=O)CO)C[C@@H]3O[C@H]1C[C@H](N)[C@H](O)[C@H](C)O1", "note": "[DXR, doxorubicin]", "values": [{"measurement": "area of CNV", "setting": "[4]; [6]", "result": "did not have a significant effect; also recorded: did not show a statistically significant reduction in the area of CNV"}, {"measurement": "area of CNV", "setting": "[4]; [7]", "result": "did not have a significant effect; also recorded: did not show a statistically significant reduction in the area of CNV"}, {"measurement": "area of CNV", "setting": "[4]; [8]", "result": "suppressed choroidal NV; also recorded: statistically significant reduction in the area of CNV"}, {"measurement": "area of RNV", "setting": "[5]; 0.01 μg intraocular at P12", "result": "but not 0.1 or 0.01 μg, significantly reduced the area of retinal NV; also recorded: did not show a statistically significant reduction in the area of RNV"}, {"measurement": "area of RNV", "setting": "[5]; 0.1 μg intraocular at P12", "result": "but not 0.1 or 0.01 μg, significantly reduced the area of retinal NV; also recorded: did not show a statistically significant reduction in the area of RNV"}, {"measurement": "area of RNV", "setting": "[5]; 1.0 μg intraocular at P12", "result": "significantly reduced the area of retinal NV; also recorded: statistically significant reduction in the area of RNV"}, {"measurement": "mean scotopic and photopic b-wave amplitudes", "setting": "Adult C57BL/6 mice [3]; [9]", "result": "significant reduction in mean scotopic and photopic b-wave amplitudes"}]}
